In publication PMC11372837, “Albumin-Mediated Drug Uptake by Organic Anion Transporter 1/3 Is Real: Implications for the Prediction of Active Renal Secretion Clearance” (Molecular Pharmaceutics, 2024):
Where two headings read alike, the source gives them in different places. Each block holds one compound with its values, some of them ahead of it.

What was measured:
[1] = target: human serum albumin (Homo sapiens, UniProt P02768); assay: Extent of albumin binding: high throughput equilibrium dialysis (fu,inc, Kd); format: in vitro ADME; conditions: for Kd: estimated using eq 3 from measured fu,inc; for fraction unbound at 6 h: human
Description: Briefly, cellulose membranes with MWCO of 12–14 kDa were submerged in distilled water for 1 h, followed by 20% ethanol/distilled water for at least 20 min. Prior to the start of the experiment, cellulose membranes were rinsed in distilled water and submerged in blank DPBS for 15 min. The HTDialysis device was assembled according to the manufacturer’s instructions (https://www.htdialysis.com). Blank DPBS was first added to the receiver side of the dialysis membranes, followed by DPBS spiked with HSA and the OAT1/3 substrate to the donor side. Each HSA concentration was tested in triplicates. The HTDialysis device was sealed with an adhesive sealing film and incubated in a water bath at 37 °C for 6 h shaken at 150 rpm. Once the assay was completed, aliquots from both receiver and donor wells were transferred to a 96-well plate and stored at −80 °C until analysis. DPBS spiked with the OAT1/3 substrate from both before and after incubation was stored to assess the recovery and stability of the samples. To prepare the sample for analysis, donor and receiver samples were matrix-matched and quenched with ice-cold acetonitrile containing an internal standard (0.5 μM gemfibrozil or 0.05 μM buspirone).

[2] = system: OAT1/3; assay: Bottom-up IVIVE of CLint,sec, CLsec and CLr, relative expression factor (REF) approach; design: species or system human
Excerpt: (§1) The relative expression and relative activity factor (REF and RAF) are unitless scalers that account for in vivo versus in vitro differences in the abundance and activity of OAT1/3 and are used for IVIVE of in vitro CLint,u,active. REF was derived from the OAT1/3 expression ratio between the in vivo human kidney cortex to the in vitro ciPTEC-OAT1/3, as shown in eq 7: [drawing 8] 7 Absolute abundance of OAT1 and OAT3 in the human kidney cortex was previously quantified by our group using the filter-aided sample preparation protocol and global proteomic analysis.[44]

[3] = system: OAT1/3; assay: Bottom-up IVIVE of CLint,sec, CLsec and CLr, relative activity factor (RAF) approach; design: species or system human
Excerpt: as §1

[4] = in vivo, plasma renal clearance, clinical data; cited from earlier work
[5] = target: T1, OAT1 (Homo sapiens, UniProt Q4U2R8); assay: OAT1 uptake study in ciPTEC-OAT1; conditions: for ratio of CLint,u,active (R) (HSA/control) 1%: OAT1, 1% HSA vs control; for ratio of CLint,u,active (R) (HSA/control) 1% / ratio of CLint,u,active (R) (HSA/control) 4%: unbound concentration kept constant; for ratio of CLint,u,active (R) (HSA/control) 4%: OAT1, 4% HSA vs control; for OAT1 substrate status (uptake in ciPTEC-OAT1): control vs probenecid 300 μM; for Vb,max OAT1, Active and Passive Uptake: eq 4 fitted to CLint,u; for Vb,max OAT1, Active and Passive Uptake / Vb,max OAT1, Active Uptake Only: mean ± S.D.; for Vb,max OAT1, Active Uptake Only: eq 4 fitted to CLint,u,active, Kd,m fixed from OAT3 data; for Change to passive diffusion clearance upon inclusion of 1% HSA: probenecid condition, preliminary experiments
T1 sequence (Q4U2R8 1-563): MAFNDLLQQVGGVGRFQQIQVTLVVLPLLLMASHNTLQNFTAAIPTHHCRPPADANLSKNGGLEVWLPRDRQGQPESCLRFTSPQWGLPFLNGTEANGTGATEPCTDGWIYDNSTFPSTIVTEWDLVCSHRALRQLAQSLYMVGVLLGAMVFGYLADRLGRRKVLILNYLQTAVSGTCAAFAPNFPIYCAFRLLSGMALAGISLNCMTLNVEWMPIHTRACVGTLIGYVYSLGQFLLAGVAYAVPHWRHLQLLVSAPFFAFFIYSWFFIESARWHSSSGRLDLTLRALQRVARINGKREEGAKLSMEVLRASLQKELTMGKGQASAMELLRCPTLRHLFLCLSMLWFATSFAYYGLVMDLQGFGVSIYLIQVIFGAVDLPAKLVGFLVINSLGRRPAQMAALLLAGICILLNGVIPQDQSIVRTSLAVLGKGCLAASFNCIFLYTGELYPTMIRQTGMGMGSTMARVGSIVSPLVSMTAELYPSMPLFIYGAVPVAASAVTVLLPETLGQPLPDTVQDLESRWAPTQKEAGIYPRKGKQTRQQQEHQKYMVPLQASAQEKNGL

[6] = target: T2, OAT3 (Homo sapiens, UniProt Q8TCC7); assay: OAT3 uptake study in ciPTEC-OAT3; conditions: for OAT3 substrate status (uptake in ciPTEC-OAT3): control vs probenecid 300 μM; for Vb,max OAT3, Active and Passive Uptake: eq 4 fitted to CLint,u; for Vb,max OAT3, Active and Passive Uptake / Vb,max OAT3, Active Uptake Only: mean ± S.D.; for Vb,max OAT3, Active Uptake Only: eq 4 fitted to CLint,u,active
T2 sequence (Q8TCC7 1-542): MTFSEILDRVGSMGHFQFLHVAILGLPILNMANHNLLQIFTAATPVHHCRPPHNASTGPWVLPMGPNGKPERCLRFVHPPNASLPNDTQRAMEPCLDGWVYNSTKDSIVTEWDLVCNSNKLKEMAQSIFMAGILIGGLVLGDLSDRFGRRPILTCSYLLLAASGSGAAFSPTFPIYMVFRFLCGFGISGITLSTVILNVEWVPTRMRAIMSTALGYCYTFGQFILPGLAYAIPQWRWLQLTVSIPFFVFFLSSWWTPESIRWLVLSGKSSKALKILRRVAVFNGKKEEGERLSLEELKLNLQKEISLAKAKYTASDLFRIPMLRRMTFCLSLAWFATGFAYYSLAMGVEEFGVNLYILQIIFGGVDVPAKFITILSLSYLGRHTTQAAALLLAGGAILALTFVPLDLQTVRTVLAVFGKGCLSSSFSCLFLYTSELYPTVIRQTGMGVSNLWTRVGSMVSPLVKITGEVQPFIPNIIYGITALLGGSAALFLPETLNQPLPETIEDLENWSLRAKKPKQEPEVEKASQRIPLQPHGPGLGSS

[7] = Observed in vivo (clinical) renal, secretion and intrinsic secretion clearance; conditions: in vivo
[8] = human, in vivo
[9] = 1% human serum albumin in DPBS, 1% HSA, equilibrium dialysis 37 °C 6 h, mean ± SD, read-out: fu,inc (1%)
[10] = 4% HSA in DPBS, 4% HSA, equilibrium dialysis 37 °C 6 h, mean ± SD, read-out: fu,inc (4%)

Sequence of human serum albumin (P02768 25-609): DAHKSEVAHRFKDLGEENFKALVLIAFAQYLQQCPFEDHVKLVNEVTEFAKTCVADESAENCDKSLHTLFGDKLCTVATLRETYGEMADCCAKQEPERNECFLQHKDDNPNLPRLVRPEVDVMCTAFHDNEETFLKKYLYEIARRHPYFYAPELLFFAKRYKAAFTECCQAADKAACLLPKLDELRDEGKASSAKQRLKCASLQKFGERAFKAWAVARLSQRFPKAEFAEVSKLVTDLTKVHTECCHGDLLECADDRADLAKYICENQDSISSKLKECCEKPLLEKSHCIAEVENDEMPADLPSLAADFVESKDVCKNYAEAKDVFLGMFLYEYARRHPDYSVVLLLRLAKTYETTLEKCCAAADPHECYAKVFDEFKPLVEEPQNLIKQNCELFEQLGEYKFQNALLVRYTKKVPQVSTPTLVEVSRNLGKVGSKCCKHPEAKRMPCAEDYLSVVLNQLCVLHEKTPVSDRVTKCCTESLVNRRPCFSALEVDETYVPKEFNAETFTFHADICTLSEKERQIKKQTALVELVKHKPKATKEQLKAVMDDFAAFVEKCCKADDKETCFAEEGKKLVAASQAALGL

Kd ([1]; mean ± SD): 56.4 ± 2.5 µM | fraction unbound at 6 h ([1]; 0.5% HSA in DPBS, 0.5% HSA, mean ± S.D., read-out: fu,inc): 0.4 ± 0.042 | fraction unbound at 6 h [1, 9]: 0.298 ± 0.005 | fraction unbound at 6 h ([1]; 2% HSA in DPBS, 2% HSA, mean ± S.D., read-out: fu,inc): 0.163 ± 0.005 | fraction unbound at 6 h [1, 10]: 0.079 ± 0.006 | CLint,sec Predicted 0% HSA ([2]; REF approach): 3.46 L/h | CLint,sec Predicted 1% HSA ([2]; REF approach): 7.85 L/h | CLint,sec Predicted 4% HSA ([2]; REF approach): 12.6 L/h | CLsec Predicted 0% HSA ([2]; REF approach): 0.29 L/h | CLsec Predicted 1% HSA ([2]; REF approach): 0.66 L/h | CLsec Predicted 4% HSA ([2]; REF approach): 1.05 L/h | Predicted CLr, CLsec and CLint,sec as % of observed ([2]; regardless of albumin inclusion and of RAF/REF approach): < 20% | CLint,sec Predicted 0% HSA [3]: 8.79 L/h | CLint,sec Predicted 1% HSA [3]: 22.1 L/h | CLint,sec Predicted 4% HSA [3]: 32.6 L/h | CLsec Predicted 0% HSA [3]: 0.74 L/h | CLsec Predicted 1% HSA [3]: 1.79 L/h | CLsec Predicted 4% HSA [3]: 2.57 L/h | fold increase in OAT1 CLint,u,active versus control ([5]; 0.5% HSA, total concentration constant at 10 µM, preliminary): 1.50 fold | fold increase in OAT1 CLint,u,active versus control ([5]; 0.5% HSA, unbound concentration constant at 1.0 µM): 1.50 fold | fold increase in OAT1 CLint,u,active versus control ([5]; 1.0% HSA, total concentration constant at 10 µM, preliminary): 1.82 fold | fold increase in OAT1 CLint,u,active versus control ([5]; 2.0% HSA, total concentration constant at 10 µM, preliminary): 0.93 fold | fold increase in OAT1 CLint,u,active versus control ([5]; 2.0% HSA, unbound concentration constant at 1.0 µM): 1.79 fold | fold increase in OAT1 CLint,u,active versus control ([5]; 4.0% HSA, total concentration constant at 10 µM, preliminary): 2.2 fold | ratio of CLint,u,active (R) (HSA/control) 1% [5]: 1.92 ± 0.65 | ratio of CLint,u,active (R) (HSA/control) 1% ([5]; listed as PDA): 1.92 | ratio of CLint,u,active (R) (HSA/control) 4% [5]: 3.46 ± 0.47 | ratio of CLint,u,active (R) (HSA/control) 4% ([5]; listed as PDA): 3.46 | unbound passive diffusion clearance (CLpd) ([5]; ciPTEC-OAT1, 300 µM probenecid): 0.031 µL/min/mg | unbound passive diffusion clearance (CLpd) ([5]; ciPTEC-OAT1, 1.0% HSA + 300 µM probenecid): 0.039 µL/min/mg | OAT1 substrate status (uptake in ciPTEC-OAT1) [5]: dual OAT1/3 substrates | Vb,max OAT1, Active and Passive Uptake [5]: 222 ± 24.6 pmol/min/mg | Vb,max OAT1, Active Uptake Only [5]: 213 ± 24 pmol/min/mg | Change to passive diffusion clearance upon inclusion of 1% HSA [5]: minimal change | Change to passive diffusion clearance upon inclusion of 1% HSA ([5]; listed as PDA): minimal changes | ratio of CLint,u,active (R) (HSA/control) 1% ([6]; OAT3, 1% HSA vs control): 2.64 ± 1.12 | ratio of CLint,u,active (R) (HSA/control) 4% ([6]; OAT3, 4% HSA vs control): 3.85 ± 1.30 | OAT3 substrate status (uptake in ciPTEC-OAT3) [6]: dual OAT1/3 substrates | Vb,max OAT3, Active and Passive Uptake [6]: 53.1 ± 17.1 pmol/min/mg | Vb,max OAT3, Active Uptake Only [6]: 51.9 ± 15.8 pmol/min/mg | CLint,sec Observed ([7]; back-calculated from clinical data): 340 L/h | CLsec Observed ([7]; plasma secretion clearance): 14.8 L/h
SMILES: Cc1ncc(CO)c(C(=O)O)c1O [4-pyridoxic acid]
CLr Observed [4]: 15.6 L/h

Kd ([1]; mean ± SD): 21.1 ± 1.4 µM | fraction unbound at 6 h [1, 9]: 0.141 ± 0.012 | fraction unbound at 6 h [1, 10]: 0.029 ± 0.003 | CLint,sec Observed [8]: 680 L/h | CLsec Observed [8]: 5.51 L/h | OAT1 substrate status (uptake in ciPTEC-OAT1) [5]: dual OAT1/3 substrates | Vb,max OAT1, Active and Passive Uptake [5]: 467 ± 49.4 pmol/min/mg | Vb,max OAT1, Active Uptake Only [5]: 447 ± 48 pmol/min/mg | OAT3 substrate status (uptake in ciPTEC-OAT3) [6]: dual OAT1/3 substrates | Vb,max OAT3, Active and Passive Uptake [6]: 492 ± 144 pmol/min/mg | Vb,max OAT3, Active Uptake Only [6]: 470 ± 132 pmol/min/mg
SMILES: CCCCNc1cc(C(=O)O)cc(S(N)(=O)=O)c1Oc1ccccc1 [bumetanide]
CLr Observed [4]: 5.77 L/h

CLsec Observed [8]: 5.07 L/h | Vb,max OAT3, Active and Passive Uptake [6]: 478 ± 139 pmol/min/mg | Vb,max OAT3, Active Uptake Only [6]: 453 ± 127 pmol/min/mg
SMILES: NS(=O)(=O)c1cc(C(=O)O)c(NCc2ccco2)cc1Cl [furosemide]
